According to patent publication US20240400544A1, “N-(HYDROXYALKYL (HETERO)ARYL) TETRAHYDROFURAN CARBOXAMIDE ANALOGS AS MODULATORS OF SODIUM CHANNELS” (VERTEX PHARMACEUTICALS INCORPORATED, priority 2021, published 2024):

Molecular target: human NaV 1.8 (Homo sapiens, UniProt Q9Y5Y9)
Assay: E-VIPR Assay Detecting and Measuring NaV Inhibition Properties
Assay type: cell-based
Conditions: HEK cells expressing a truncated form of human NaV 1.8 with full channel activity; electrical stimulation, membrane potential FRET dyes; read-out: measured IC50 value in the E-VIPR Assay
Description: E-VIPR Assay Detecting and Measuring NaV Inhibition Properties
Sodium ion channels are voltage-dependent proteins that can be activated by inducing membrane voltage changes by applying electric fields. The electrical stimulation instrument and methods of use, referred to as E-VIPR, are described in International Publication No. WO 2002/008748 A3 and C.-J. Huang et al. Characterization of voltage-gated sodium channel blockers by electrical stimulation and fluorescence detection of membrane potential, 24 Nature Biotech. 439-46 (2006), both of which are incorporated by reference in their entirety. The instrument comprises a microtiter plate handler, an optical system for exciting the coumarin dye while simultaneously recording the coumarin and oxonol emissions, a waveform generator, a current- or voltage-controlled amplifier, and parallel electrode pairs that are inserted into assay plate wells. Under integrated computer control, this instrument passes user-programmed electrical stimulus protocols to cells within the wells of the microtiter plate.
16-20 hours prior to running the assay on E-VIPR, HEK cells expressing a truncated form of human NaV 1.8 with full channel activity were seeded into microtiter 384-well plates, pre-coated with matrigel, at a density of 25,000 cells per well. 2.5-5% KIR2.1 Bacmam virus was added to the final cell suspension before seeding into cell plates. HEK cells were grown in Dulbecco's Modified Eagle's Medium (DMEM) supplemented with 10% FBS (Fetal Bovine Serum, qualified; Sigma #F4135), 1% NEAA (Non-Essential Amino Acids, Gibco #11140), 1% HEPES (Gibco #15630), 1% Pen-Strep (Penicillin-Streptomycin; Gibco #15140) and 5 μg/ml Blasticidin (Gibco #R210-01). Cells were expanded in vented cap cell culture flasks, with 90-95% humidity and 5% CO2.
2.5-5% KIR 2.1 Bacmam virus (produced in-house), prepared as described in Section 3.3 of J. A. Fornwald et al., Gene Expression in Mammalian Cells Using BacMam, a Modified Baculovirus System, 1350 Methods in Molecular Biology 95-116 (2016), the entire contents of which are incorporated by reference. The concentration used can be dependent on viral titer of each batch.
5 mM DiSBAC6(3), a voltage sensitive oxonol acceptor (CAS number 169211-44-3; 5-[3-(1,3-dihexylhexahydro-4,6-dioxo-2-thioxo-5-pyrimidinyl)-2-propen-1-ylidene]-1,3-dihexyldihydro-2-thioxo-4,6(1H,5H)-pyrimidinedione), in dry DMSO. The preparation of DiSBAC6(3) is analogous to that of DiSBAC4(3) as described in Voltage Sensing by Fluorescence Resonance Energy Transfer in Single Cells, Gonzalez, J. E. and Tsien, R. Y. (1995) Biophys. J. 69, 1272-1280.
5 mM CC2-DMPE, a commercially available membrane-bound coumarin phospholipid FRET donor (ThermoFisher Scientific catalog number K1017, CAS number 393782-57-5; tetradecanoic acid, 1,1′-[(1R)-1-[8-(6-chloro-7-hydroxy-2-oxo-2H-1-benzopyran-3-yl)-3-hydroxy-3-oxido-8-oxo-2,4-dioxa-7-aza-3-phosphaoct-1-yl]-1,2-ethanediyl] ester) was prepared in dry DMSO. See also, Improved indicators of cell membrane potential that use fluorescence resonance energy transfer, Gonzalez, J. E. and Tsien, R. Y. (1997) Chem. Biol. 4, 269-277.
Voltage Assay Background Suppression Compound (VABSC-1) is prepared in H2O (89-363 mM, range used to maintain solubility)
Human Serum (HS, Millipore #S1P1-01KL, or Sigma SLBR5469V and SLBR5470V as a 50%/50% mixture, for 25% assay final concentration)
• Sodium Chloride 160 mM (9.35 g/L), Potassium Chloride, 4.5 mM (0.335 g/L), Glucose • 10 mM (1.8 g/L), Magnesium Chloride (Anhydrous) 1 mM (0.095 g/L), Calcium • Chloride 2 mM (0.222 g/L), HEPES 10 mM (2.38 g/L) in water.
• Sodium Chloride 96 mM (5.61 g/L), Potassium Chloride 4.5 mM (0.335 g/L), • Tetramethylammonium (TMA)-Cl 64 mM (7.01 g/L), Glucose 10 mM (1.8 g/L), • Magnesium Chloride (Anhydrous) 1 mM (0.095 g/L), Calcium Chloride 2 mM (0.222 • g/L) HEPES 10 mM (2.38 g/L) in water. […]

Sequence of human NaV 1.8 (Q9Y5Y9 126-1722 limits assumed): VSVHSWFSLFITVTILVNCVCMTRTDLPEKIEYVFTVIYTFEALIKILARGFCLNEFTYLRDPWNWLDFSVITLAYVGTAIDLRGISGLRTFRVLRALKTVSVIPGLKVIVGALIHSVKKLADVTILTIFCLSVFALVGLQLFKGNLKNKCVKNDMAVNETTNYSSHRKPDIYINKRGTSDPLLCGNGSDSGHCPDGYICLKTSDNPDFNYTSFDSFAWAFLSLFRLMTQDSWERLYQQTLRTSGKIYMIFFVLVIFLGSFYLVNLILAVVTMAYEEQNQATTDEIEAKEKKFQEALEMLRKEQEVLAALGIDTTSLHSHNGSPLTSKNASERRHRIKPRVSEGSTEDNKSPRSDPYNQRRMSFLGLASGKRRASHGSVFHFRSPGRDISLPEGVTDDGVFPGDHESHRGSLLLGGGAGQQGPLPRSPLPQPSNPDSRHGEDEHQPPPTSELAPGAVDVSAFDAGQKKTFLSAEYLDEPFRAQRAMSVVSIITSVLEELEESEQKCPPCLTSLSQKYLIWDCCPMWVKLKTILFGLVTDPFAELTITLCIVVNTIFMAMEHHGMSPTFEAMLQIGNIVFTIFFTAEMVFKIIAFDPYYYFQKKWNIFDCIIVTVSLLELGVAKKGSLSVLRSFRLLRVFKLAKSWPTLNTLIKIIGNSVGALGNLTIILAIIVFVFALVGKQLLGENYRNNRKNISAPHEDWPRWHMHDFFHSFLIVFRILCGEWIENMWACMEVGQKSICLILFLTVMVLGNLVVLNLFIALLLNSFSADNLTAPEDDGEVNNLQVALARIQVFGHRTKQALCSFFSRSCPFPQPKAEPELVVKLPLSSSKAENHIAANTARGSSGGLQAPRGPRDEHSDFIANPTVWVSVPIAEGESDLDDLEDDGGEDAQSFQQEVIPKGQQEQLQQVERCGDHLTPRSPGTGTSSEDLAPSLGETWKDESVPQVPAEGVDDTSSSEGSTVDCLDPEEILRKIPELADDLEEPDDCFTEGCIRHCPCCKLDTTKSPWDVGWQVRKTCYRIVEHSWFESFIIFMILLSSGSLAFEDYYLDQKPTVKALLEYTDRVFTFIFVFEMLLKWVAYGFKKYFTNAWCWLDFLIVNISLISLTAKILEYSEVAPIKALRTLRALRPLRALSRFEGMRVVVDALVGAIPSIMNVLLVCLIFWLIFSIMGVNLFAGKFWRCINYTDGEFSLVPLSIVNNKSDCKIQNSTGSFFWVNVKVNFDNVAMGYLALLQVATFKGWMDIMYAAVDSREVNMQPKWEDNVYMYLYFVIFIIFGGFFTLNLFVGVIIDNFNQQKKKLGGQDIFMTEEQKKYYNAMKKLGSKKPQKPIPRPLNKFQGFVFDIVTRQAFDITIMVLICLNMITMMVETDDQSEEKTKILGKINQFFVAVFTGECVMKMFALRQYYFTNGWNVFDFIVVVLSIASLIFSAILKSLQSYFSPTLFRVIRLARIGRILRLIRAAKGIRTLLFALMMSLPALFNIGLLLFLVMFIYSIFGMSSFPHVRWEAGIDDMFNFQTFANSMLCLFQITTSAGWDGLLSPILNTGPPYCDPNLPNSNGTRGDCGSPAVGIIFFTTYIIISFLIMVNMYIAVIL

| SMILES | IC50 |
| --- | --- |
| C[C@H]1[C@@H](c2ccc(F)c(F)c2OCC(=O)N(C)C)[C@H](C(=O)Nc2ccc(CO)nc2)O[C@@]1(C)C(F)(F)F [Compound 7, (2R,3S,4S,5R)-3-(2-(2-(dimethylamino)-2-oxoethoxy)-3,4-difluorophenyl)-N-(6-(hydroxymethyl)pyridin-3-yl)-4,5-dimethyl-5-(trifluoromethyl)tetrahydrofuran-2-carboxamide] | 0.01 to 0.1 µM |
| COCCOc1c([C@H]2[C@H](C(=O)Nc3cnc(C(O)CO)nc3)O[C@@](C)(C(F)(F)F)[C@H]2C)ccc(F)c1C (single isomer, unassigned) [Compound 17] | 0.01 to 0.1 µM |
| COc1c([C@H]2[C@H](C(=O)Nc3cnc4c(c3)CCC4O)O[C@@](C)(C(F)(F)F)[C@H]2C)ccc(F)c1F (single isomer, unassigned) [Compound 3, rel-(2R*,3S*,4S*,5R*)-3-(3,4-difluoro-2-methoxyphenyl)-N-(7-hydroxy-6,7-dihydro-5H-cyclopenta[b]pyridin-3-yl)-4,5-dimethyl-5-(trifluoromethyl)tetrahydrofuran-2-carboxamide] | 0.1 to 1 µM |
| C[C@H]1[C@@H](c2ccc(F)c(F)c2OCCOC(F)F)[C@H](C(=O)Nc2ccc([C@@H](O)CO)nc2)O[C@@]1(C)C(F)(F)F [Compound 12, (2R,3S,4S,5R)-3-(2-(2-(difluoromethoxy)ethoxy)-3,4-difluorophenyl)-N-(6-((R)-1,2-dihydroxyethyl)pyridin-3-yl)-4,5-dimethy1-5-(trifluoromethyl)tetrahydrofuran-2-carboxamide] | 0.01 to 0.1 µM |
| C[C@H]1[C@@H](c2ccc(F)c(F)c2OCCO)[C@H](C(=O)Nc2ccc(CO)nc2)O[C@@]1(C)C(F)(F)F [Compound 23, (2R,3S,4S,5R)-3-(3,4-difluoro-2-(2-hydroxyethoxy)phenyl)-N-(6-(hydroxymethyl)pyridin-3-yl)-4,5-dimethyl-5-(trifluoromethyl)tetrahydrofuran-2-carboxamide] | 0.01 to 0.1 µM |
| C[C@H]1[C@@H](c2ccc(F)c(F)c2OCC2COC2)[C@H](C(=O)Nc2ccc(CO)nc2)O[C@@]1(C)C(F)(F)F [Compound 24, (2R,3S,4S,5R)-3-(3,4-difluoro-2-(oxetan-3-ylmethoxy)phenyl)-N-(6-(hydroxymethyl)pyridin-3-yl)-4,5-dimethyl-5-(trifluoromethyl)tetrahydrofuran-2-carboxamide] | 0.01 to 0.1 µM |
| C[C@H]1[C@@H](c2ccc(F)c(F)c2OCC2CCOC2)[C@H](C(=O)Nc2ccc(CO)nc2)O[C@@]1(C)C(F)(F)F (stereo partly drawn) [Compound 9, (2R,3S,4S,5R)-3-(3,4-difluoro-2-((tetrahydrofuran-3-yl)methoxy)phenyl)-N-(6-(hydroxymethyl)pyridin-3-yl)-4,5-dimethyl-5-(trifluoromethyl)tetrahydrofuran-2-carboxamide] | 0.01 to 0.1 µM |
| C[C@H]1[C@@H](c2ccc(F)c(F)c2OC2CC3(COC3)C2)[C@H](C(=O)Nc2ccc(CO)nc2)O[C@@]1(C)C(F)(F)F [Compound 8, (2R,3S,4S,5R)-3-(2-((2-oxaspiro[3.3]heptan-6-yl)oxy)-3,4-difluorophenyl)-N-(6-(hydroxymethyl)pyridin-3-yl)-4,5-dimethyl-5-(trifluoromethyl)tetrahydrofuran-2-carboxamide] | 0.1 to 1 µM |
| C[C@H]1[C@@H](c2ccc(F)c(F)c2OCCN2C[C@H]3COC[C@H]3C2)[C@H](C(=O)Nc2cnc(CO)nc2)O[C@@]1(C)C(F)(F)F [Compound 26, (2R,3S,4S,5R)-3-(3,4-difluoro-2-(2-((3aR,6aS)-tetrahydro-1H-furo[3,4-c]pyrrol-5(3H)-yl)ethoxy)phenyl)-N-(2-(hydroxymethyl)pyrimidin-5-yl)-4,5-dimethyl-5-(trifluoromethyl)tetrahydrofuran-2-carboxamide] | 0.1 to 1 µM |
| C[C@H]1[C@@H](c2ccc(F)c(F)c2OCCN2CCOCC2)[C@H](C(=O)Nc2ccc(CO)nc2)O[C@@]1(C)C(F)(F)F [Compound 25, (2R,3S,4S,5R)-3-(3,4-difluoro-2-(2-morpholinoethoxy)phenyl)-N-(6-(hydroxymethyl)pyridin-3-yl)-4,5-dimethyl-5-(trifluoromethyl)tetrahydrofuran-2-carboxamide] | 0.01 to 0.1 µM |
